Our source for the IC50 values is patent US12502386B2, “Nitrogen-containing heterocyclic compound and use thereof” (SHANGHAI SHIJIANG BIOTECHNOLOGY CO., LTD, priority 2022, dated 2025).

Like-named read-outs stand apart in the source and are kept apart here.

What all share (assay type): cell-based, human
Assay [1] has as its system Con-NCI-H82 cell. The experiment in a line: CellTiter-Glo cell viability, Con-NCI-H82 cell (empty-vector control). The note with it: intracellular ATP, read-out: inhibitory effect on Con-NCI-H82 (IC50). (In general: In ATP-based viability assays light output follows the ATP content of the culture.)
The test system of assay [2] is ov-NNMT NCI-H82 cell. The experiment in a line: CellTiter-Glo cell viability, ov-NNMT NCI-H82 cell (NNMT overexpressed). The note with it: intracellular ATP, read-out: inhibitory effect on OV-NNMT NCI-H82 (IC50).
Assay [3] deals with sh-DNMT1 NCI-H82 cell. The experiment in a line: CellTiter-Glo cell viability, sh-DNMT1 NCI-H82 cell (DNMT1 knocked down). The note with it: intracellular ATP, read-out: inhibitory effect on sh-DNMT1 NCI-H82 (IC50).
[4] abbreviates: Homo sapiens, NCI-H82, NCI-H82 transfected with empty virus vector (control).
[5] abbreviates: Homo sapiens, NCI-H82, NCI-H82 overexpressing NNMT protein.
The mark [6] stands for this setting: Homo sapiens, NCI-H82, NCI-H82 with DNMT1 knocked down by shRNA.

Consider `CCOc1c(OC)ccc2c1C(C(Cl)(Cl)Cl)N1CCc3cc4c(cc3C1=C2)OCO4` (stereo not drawn) [AB35499], for which the IC50 (commonly the midpoint of a concentration-inhibition curve) is 2.16 µM in assay [1] (setting [4]), 6.96 µM in assay [2] (setting [5]) and 6.52 µM in assay [3] (setting [6]).
For `CCCC1=C2c3cc4c(cc3CCN2C(C(Cl)(Cl)Cl)c2c1ccc(OC)c2OC)OCO4` (stereo not drawn) [AB35492], the values for the IC50 in assay [1] (setting [4]), in assay [2] (setting [5]) and in assay [3] (setting [6]) were 1.46 µM, 4.56 µM and 4.44 µM, respectively.
Taken in the same sequence, the figures for `COc1ccc2c(c1OCCCCCCBr)C(C)N1CCc3cc4c(cc3C1=C2)OCO4` (stereo not drawn) [AB31897] were 1.43 µM, 5.32 µM and 4.96 µM.
With `COc1ccc2c(c1OC)C(c1ccccc1)N1CCc3cc4c(cc3C1=C2)OCO4` (stereo not drawn) [AB36467], the half-maximal inhibitory concentration (IC50) is 3.92 µM in assay [1] (setting [4]), 9.32 µM in assay [2] (setting [5]) and 13.1 µM in assay [3] (setting [6]).
Taken in the same sequence, the figures for `CC1c2c(ccc3c2OCO3)C=C2c3cc4c(cc3CCN21)OCO4` (stereo not drawn) [AB35413] were 5.48 µM, 14.2 µM and 20.3 µM.
Consider `CCCC1=C2c3cc4c(cc3CCN2C(C2CCCC2)c2c1ccc1c2OCO1)OCO4` (stereo not drawn) [AB36432], for which the IC50 in assay [1] (setting [4]) was found to be 1.26 µM; in assay [2] (setting [5]), 3.68 µM; in assay [3] (setting [6]), 4.46 µM.
Taken in the same sequence, the figures for `CCC1=C2c3cc4c(cc3CCN2C(C(Cl)(Cl)Cl)c2c1ccc(OC)c2OC)OCO4` (stereo not drawn) [AB35488] were 1.98 µM, 7.56 µM and 9.32 µM.
Taken in the same sequence, the figures for `CCCCCCCCC1=C2c3cc4c(cc3CCN2C(C(Cl)(Cl)Cl)c2c1ccc(OC)c2OC)OCO4` (stereo not drawn) [AB35497] were 1.25 µM, 3.56 µM and 5.68 µM.
Taken in the same sequence, the figures for `COc1ccc2c(c1OC)C(C)N1CCc3cc4c(cc3C1=C2CCCc1ccccc1)OCCO4` (stereo not drawn) [AB35493] were 0.68 µM, 1.53 µM and 2.07 µM.
For the molecule `COc1ccc2c(c1OCCCCCCBr)C(C1CCCC1)N1CCc3cc4c(cc3C1=C2)OCO4` (stereo not drawn) [AB35458], the IC50 in assay [1] (setting [4]) was 1.56 µM; in assay [2] (setting [5]) it was 4.12 µM; in assay [3] (setting [6]) it was 5.32 µM.
Taken in the same sequence, the figures for `CCCCC1=C2c3cc4c(cc3CCN2C(C(Cl)(Cl)Cl)c2c1ccc(OC)c2OC)OCO4` (stereo not drawn) [AB35502] were 2.93 µM, 7.18 µM and 7.02 µM.
Taken in the same sequence, the figures for `COc1ccc2c(c1N1CCC(C(F)(F)F)CC1)C(C(Cl)(Cl)Cl)N1CCc3cc4c(cc3C1=C2)OCO4` (stereo not drawn) [AB35514] were 0.37 µM, 1.36 µM and 1.98 µM.
Taken in the same sequence, the figures for `CCCCCOc1c(OC)ccc2c1C(C(Cl)(Cl)Cl)N1CCc3cc4c(cc3C1=C2)OCO4` (stereo not drawn) [AB35505] were 0.52 µM, 2.14 µM and 3.36 µM.
As for `CCC(CC)COc1c(OC)ccc2c1C(C(Cl)(Cl)Cl)N1CCc3cc4c(cc3C1=C2)OCO4` (stereo not drawn) [AB35521], the IC50 in assay [1] (setting [4]) came out at 0.61 µM; in assay [2] (setting [5]), 2.32 µM; in assay [3] (setting [6]), 3.14 µM.
Taken in the same sequence, the figures for `CC1=C2c3cc4c(cc3CCN2C(C(Cl)(Cl)Cl)c2c1ccc1c2OCO1)OCO4` (stereo not drawn) [AB36442] were 15 µM, 13.3 µM and 14.1 µM.
Taken in the same sequence, the figures for `COc1ccc2c(c1NCCc1ccccc1)C(C(Cl)(Cl)Cl)N1CCc3cc4c(cc3C1=C2)OCO4` (stereo not drawn) [AB35486] were 0.25 µM, 1.34 µM and 2.56 µM.
Taken in the same sequence, the figures for `COc1ccc2c(c1OC)CN1CCc3cc4c(cc3C1=C2)OCCO4` [AB36463] were 0.92 µM, 3.44 µM and 3.24 µM.
Take `COc1ccc2c(c1OCCCBr)C(C(Cl)(Cl)Cl)N1CCc3cc4c(cc3C1=C2)OCO4` (stereo not drawn) [AB35466]: the IC50 was determined as 1.01 µM in assay [1] (setting [4]), 3.56 µM in assay [2] (setting [5]) and 4.48 µM in assay [3] (setting [6]).
Taken in the same sequence, the figures for `ClC(Cl)(Cl)C1c2c(ccc3c2OCO3)C(CCCc2ccccc2)=C2c3cc4c(cc3CCN21)OCO4` (stereo not drawn) [AB35428] were 4.23 µM, 10.2 µM and 15.4 µM.
Consider `COc1ccc2c(c1OCCCBr)C(C)N1CCc3cc4c(cc3C1=C2)OCO4` (stereo not drawn) [AB31887], for which the results for the IC50 in assay [1] (setting [4]), in assay [2] (setting [5]) and in assay [3] (setting [6]) were 2.83 µM, 5.78 µM and 5.69 µM, respectively.
Taken in the same sequence, the figures for `CCCCCC1=C2c3cc4c(cc3CCN2C(C(Cl)(Cl)Cl)c2c1ccc(OC)c2OC)OCO4` (stereo not drawn) [AB35418] were 0.53 µM, 1.26 µM and 2.25 µM.
Taken in the same sequence, the figures for `COc1ccc2c(c1OC)C(C(Cl)(Cl)Cl)N1CCc3cc4c(cc3C1=C2CCCc1ccccc1)OCCO4` (stereo not drawn) [AB35484] were 0.77 µM, 3.56 µM and 3.32 µM.
Taken in the same sequence, the figures for `COc1ccc2c(c1OCCCF)C(C(Cl)(Cl)Cl)N1CCc3cc4c(cc3C1=C2)OCO4` (stereo not drawn) [AB35478] were 1.23 µM, 4.32 µM and 4.02 µM.
`COc1ccc2c(c1OCCCCOc1ccccc1)C(C1CCCC1)N1CCc3cc4c(cc3C1=C2)OCO4` (stereo not drawn) [AB35454]: the IC50 amounted to 1.02 µM in assay [1] (setting [4]), 3.25 µM in assay [2] (setting [5]) and 4.98 µM in assay [3] (setting [6]).
Taken in the same sequence, the figures for `COc1ccc2c(c1OC)C(n1cccc1)N1CCc3cc4c(cc3C1=C2)OCO4` (stereo not drawn) [AB36520] were 2.56 µM, 2.42 µM and 2.62 µM.
Taken in the same sequence, the figures for `CCC1=C2c3cc4c(cc3CCN2C(C(Cl)(Cl)Cl)c2c1ccc1c2OCO1)OCO4` (stereo not drawn) [AB36426] were 18.6 µM, 18.1 µM and 18.8 µM.
Taken in the same sequence, the figures for `CCCCN1CCN(c2c(OC)ccc3c2C(C(Cl)(Cl)Cl)N2CCc4cc5c(cc4C2=C3)OCO5)CC1` (stereo not drawn) [AB35445] were 5.55 µM, 13.4 µM and 16.4 µM.
Regarding `CCCCOc1c(OC)ccc2c1C(C(Cl)(Cl)Cl)N1CCc3cc4c(cc3C1=C2)OCO4` (stereo not drawn) [AB35494], the IC50 was 0.43 µM in assay [1] (setting [4]), 2.12 µM in assay [2] (setting [5]) and 1.96 µM in assay [3] (setting [6]).
`COc1ccc2cc3n(c(=O)c2c1OC)CCc1cc2c(cc1-3)OCO2` [AB36496]: the IC50 is 12.9 µM in assay [1] (setting [4]), 10.1 µM in assay [2] (setting [5]) and 12.6 µM in assay [3] (setting [6]).
Taken in the same sequence, the figures for `COc1ccc2c(c1OC)C(C1CCCC1)N1CCc3cc4c(cc3C1=C2CCCCCCCl)OCO4` (stereo not drawn) [AB35500] were 1.11 µM, 2.98 µM and 2.88 µM.
Taken in the same sequence, the figures for `CCCCC1c2c(c(Br)cc(OC)c2OC)C=C2c3cc4c(cc3CCN21)OCO4` (stereo not drawn) [AB31873] were 2.88 µM, 6.32 µM and 6.08 µM.
Taken in the same sequence, the figures for `COc1ccc2c(c1N1CCC(C)CC1)C(C(Cl)(Cl)Cl)N1CCc3cc4c(cc3C1=C2)OCO4` (stereo not drawn) [AB35453] were 0.23 µM, 1.32 µM and 2.08 µM.
With `C1=C2c3cc4c(cc3CCN2Cc2cc3c(cc21)OCO3)OCO4` [AB36428], the IC50 in assay [1] (setting [4]) is 0.45 µM; in assay [2] (setting [5]) it was 1.44 µM; in assay [3] (setting [6]), 2.29 µM.
Taken in the same sequence, the figures for `COc1ccc2c(c1OC)C(c1ccncc1)N1CCc3cc4c(cc3C1=C2)OCO4` (stereo not drawn) [AB36488] were 8.23 µM, 8.06 µM and 7.83 µM.
As for `COc1ccc2c(c1OC)C(C1CCCC1)N1CCc3cc4c(cc3C1=C2Cc1ccc(C(C)C)cc1)OCO4` (stereo not drawn) [AB35460], the IC50 in assay [1] (setting [4]) came out at 0.66 µM; in assay [2] (setting [5]), 2.02 µM; in assay [3] (setting [6]) it was 2.56 µM.
Regarding `COc1c(OCCCCl)ccc2c1C(C1CCCC1)N1CCc3cc4c(cc3C1=C2)OCO4` (stereo not drawn) [AB36474], the IC50 in assay [1] (setting [4]) amounted to 1.33 µM; in assay [2] (setting [5]) it was 4.12 µM; in assay [3] (setting [6]) it was 6.08 µM.
Taken in the same sequence, the figures for `COc1ccc2c(c1OCCCCc1ccccc1)C(C(Cl)(Cl)Cl)N1CCc3cc4c(cc3C1=C2)OCO4` (stereo not drawn) [AB35535] were 0.22 µM, 1.21 µM and 1.32 µM.
Taken in the same sequence, the figures for `CCCCCCOc1c(OC)ccc2c1C(C(Cl)(Cl)Cl)N1CCc3cc4c(cc3C1=C2)OCO4` (stereo not drawn) [AB35487] were 0.49 µM, 1.98 µM and 3.23 µM.
Consider `COc1ccc2c(c1OC)C(C)N1CCc3cc4c(cc3C1=C2CCCCc1ccccc1)OCO4` (stereo not drawn) [AB35468], for which the IC50 in assay [1] (setting [4]) was found to be 0.82 µM; in assay [2] (setting [5]), 3.12 µM; in assay [3] (setting [6]), 4.32 µM.
For the molecule `COc1ccc2c(c1OC)C(C1CCCC1)N1CCc3cc4c(cc3C1=C2)OCO4` (stereo not drawn) [AB36497], the results for the IC50 in assay [1] (NCI-H82 transfected with empty virus vector (control)), in assay [2] (NCI-H82 overexpressing NNMT protein) and in assay [3] (NCI-H82 with DNMT1 knocked down by shRNA) were 19.9 µM, 18.3 µM and 17 µM, respectively.
On to `COc1ccc2c(c1OC)C(C1CCCC1)N1CCc3cc4c(cc3C1=C2CCc1ccccc1)OCO4` (stereo not drawn) [AB35448], for which the results for the IC50 in assay [1] (setting [4]), in assay [2] (setting [5]) and in assay [3] (setting [6]) were 1.34 µM, 2.98 µM and 2.88 µM, respectively.
